US20250161286A1 (AEVIS BIO, INC., priority 2022, published 2025)

How the values were obtained:
[1] = system: SALL4; assay: SALL4 degradation by immunoblotting in Tera-1 cells; type: cell-based, human; settings: 0.000128-10 μM, 4 hours
From the text: It has been reported that a cereblon (CRBN)-binding therapeutic such as a thalidomide-based compound can cause severe congenital abnormalities such as forelimb shortening or brachydactyly, which are closely associated with the decomposition of SALL4.
To this end, the Tera-1 cell line (HTB-105), which is a human embryonic carcinoma cell line, was purchased from the American Type Culture Collection (ATCC, Manassas, VA, USA) and used, and then cultured using a DMEM medium (Corning, MD, USA) supplemented with 10% fetal bovine serum (Corning, MD, USA), 100 U/ml of penicillin (Corning, MD, USA), and 100 μg/ml streptomycin (Corning, MD, USA) at 37° C. in a 5% CO2 incubator.
The cells were disrupted by adding a RIPA buffer containing a protease inhibitor cocktail (Thermo Fisher Scientific), and centrifuged at 14,000 rpm for 15 minutes at 4° C. to obtain a cell extract. Equal amounts of the cell extract were loaded, and proteins were separated by SDS-PAGE and then transferred to a PVDF membrane. The protein-transferred membrane was blocked using skim milk, incubated with a primary antibody for 3 hours at room temperature, and then incubated with an HRP-conjugated secondary antibody for 1 hour at room temperature. The resulting product was washed with TBS-T three times between steps. […]

[2] = system: tyrosine hydroxylase (TH); assay: Immunohistochemical test of tyrosine hydroxylase in brain of MPTP mice; type: in vivo, mouse; settings: oral, versus MPTP group
Procedure: To cause the disease, mice in the G2, G3, G4, and G5 groups were administered MPTP dissolved in saline via an intraperitoneal route at 2-hour intervals four times a day (20 mg/kg/time), while the G1 group received the same amount of saline.
After the end of the test on day 7, the brain tissue of the sacrificed mice was collected, sectioned, and analyzed.
Six mice per group were fixed by perfusion with saline followed by perfusion with 4% paraformaldehyde (Biosesang, cat #PC2031-000-00). Each brain tissue was rapidly frozen after isolation and stored at −80° C. until tissue sectioning. Sections for immunohistochemical testing were embedded in an OCT compound (SAKURA, cat #4583), samples were sectioned into 20 μm-thick sections using a cryomicrotome, Leica CM1950 (Leica Microsystems, Germany), and each section was stored at 4° C. until an antibody reaction. […] Images stained with the tyrosine hydroxylase antibody were observed under a microscope (Olympus, SZ61, BX51), and the OD values, which are immunostaining-positive, observed in the striatum and substantia nigra tissue were measured and analyzed by the Image J program.

## Nc1cccc2c1C(=S)N(C1CCC(=O)NC1=O)C2=O (stereo not drawn) [3-MP, 3-thiopomalidomide]
[1]
  decomposition of SALL4: less decomposition of SALL4 than pomalidomide
[2]; 30 and 90 mg/kg
  expression of tyrosine hydroxylase in the substantia nigra: increased in a statistically significant manner
[2]; all doses, particularly 30 mg/kg
  expression of tyrosine hydroxylase (TH) in the striatum: significantly increased
